Laboratory results: patent publication US20250213596A1, “CANNABINOID-CONTAINING COMPOSITIONS” (BUZZELET DEVELOPMENT AND TECHNOLOGIES LTD., priority 2022, published 2025)

Test: Flowability / transfer of the product from vessel to vessel
Assay type: physicochemical
Conditions: as obtained, ambient temperature
Description: As used herein, the term “flowable” with regard to a composition is intended to mean that a majority of particles of the composition have the ability to move freely relative to an inner surface of a vessel in which they are contained.
Purified THC at 99% purity (dronabinol) was used.
A product comprising 66% silica and 33% THC was formed. It felt dry and was free flowing. It transferred fully from one vessel to another.

CCCCCc1cc(O)c2c(c1)OC(C)(C)[C@@H]1CCC(C)=C[C@@H]21 [dronabinol]
flowability of the material (pourable / free flowing): could not be poured out of its container
